Where no end group is shown, it is not given here.
What follows are compounds tested on InsB4 T-cell clone. Conditions: not given.
Format: cell-based, human
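Also: T-cell clone rested overnight in 5% FBS medium, then cultured overnight with peptide titrations, MIP-1β released into supernatant measured by ELISA.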

Row | Compound | EC50
1 | LQVENYLPI | 27 nM
2 | FLTEWILPL | 5800 nM
3 | LQVIRILLA | 2600 nM
4 | LLVERQLVL | 6600 nM
5 | ILIERGLTF | 79000 nM
6 | ILIEGILFF | 0.92 nM
7 | LLLERYFLA | 66 nM
8 | LQVEGAMSV | 240 nM
9 | MLVEWALVA | 54 nM
10 | IVLEGAMIV | 130 nM
11 | MQLENGLLL | 6.3 nM
12 | LILERSPTA | 13000 nM
13 | MLYENWLLS | 1900 nM
14 | LMLENLLTF | 2200 nM
15 | FLIEGVLTI | 55 nM
16 | LTVEGIFRV | 1600 nM
17 | LVLEDILLA | 1400 nM
18 | LLIIGGLLF | 290 nM
19 | MLVEGVLLA | 55 nM
20 | EMLERGLLV | 1600 nM
21 | LLVENWPLL | 2.4 nM
22 | LLVEGALTG | 640 nM

Row | Compound | EC50
23 | LMVENVPFA | 0.052 nM
24 | IMYEGLLFV | 70 nM
25 | LLIENFVTG | 5600 nM
26 | MLVEEGLLV | 97 nM
27 | MIVENVPLL | 0.17 nM
28 | MLIERVMST | 5600 nM
29 | ILLENGYLL | 600 nM
30 | FILEGILTV | 54 nM
31 | LMLERGFII | 950 nM
32 | LLEENSPML | 50 nM
33 | LLLERMFLF | 1400 nM
34 | LILQGVLTM | 2600 nM
35 | MIVEGFLLL | 59 nM
36 | MLIEGVLTV | 10 nM
37 | IITEGIMTL | 5900 nM
38 | LIEERSPLI | 6100 nM
39 | LLVEGAMTV | 42 nM
40 | IIVEDSLLV | 1.1 nM
41 | FLVEQVLFA | 3300 nM
42 | ALVENQFLL | 2200 nM
43 | ITIERILTI | 1800 nM
44 | LLVEDLLVL | 200 nM

Same assay, conditions: 20 top-scoring fungal peptides, Figure 8; overnight, MIP-1β ELISA; NR = no T-cell response; read-out: EC50 of peptide activation of InsB4

Row | Compound | EC50
45 | IQLENSLFA | 8900 nM
46 | LLVEDMLLM | 390 nM
47 | FLLERILIV | 960 nM
48 | LVVEGSLFV | 340 nM
49 | LILENYMFA | 880 nM
50 | MQVEWILTF | 12000 nM
51 | CC(C)C[C@H](NC(=O)[C@H](C)NC(=O)[C@H](CCC(=O)O)NC(=O)[C@@H](NC(=O)[C@H](CC(C)C)NC(=O)[C@@H](N)Cc1c[nH]cn1)C(C)C)C(=O)N[C@@H](Cc1ccc(O)cc1)C(=O)N[C@@H](CC(C)C)C(=O)N[C@H](C(=O)O)C(C)C [reference compound] | 1100 nM
52 | IMLENGPFL [top-scoring fungal peptide] | > 10000 nM
53 | MLLEGMMIV | 110 nM
54 | LQLEGQLLL | 3900 nM
55 | LIIEWYLIM | 860 nM
56 | MIIEGFLLI | 130 nM
57 | LIIEWIFFL | 150 nM
58 | ILVERALFT [top-scoring fungal peptide] | > 10000 nM

Same assay, conditions: overnight, MIP-1β ELISA

Row | Compound | agonist activity on InsB4 in words (relative to index HLVEALYLV)
59 | ILLEGILIL [bacterial protein-derived nonamer peptide, Bin 2] | most potent

From article PMC7058665, “GPU-Accelerated Discovery of Pathogen-Derived Molecular Mimics of a T-Cell Insulin Epitope” (Frontiers in Immunology, 2020)
